Measured values from patent US8071317B2, “Methods for detection of hydrophobic drugs” (Siemens Healthcare Diagnostics Inc., priority 2007, dated 2011).

Tested on: anti-sirolimus antibody
Assay: Sirolimus ACMIA immunoassay: metabolite cross-reactivity in whole blood
Type: binding
Source text: Testing was done using the DIMENSION® RxL analyzer, available from Dade Behring Inc., Newark Del. The instrument was employed using ACMIA immunoassay technology. The ACMIA assay method is disclosed in U.S. Pat. Nos. 7,186,518, 5,147,529, 5,128,103, 5,158,871, 4,661,408, 5,151,348, 5,302,532, 5,422,284, 5,447,870, 5,434,051, the disclosures of which are incorporated herein in their entirety). In the embodiment of the ACMIA method used herein and discussed in more detail below, competition between sirolimus analog on chrome particles and sirolimus (SIRO) in patient samples for antibody for sirolimus conjugated to an enzyme (conjugate) was utilized to determine the amount of sirolimus in the patient samples. Conjugate that binds to the sirolimus analog on chrome particles was removed by magnetic separation. The enzymatic activity from conjugate remaining in the supernatant is measured and is directly proportional to the amount of sirolimus in the patient sample. In the ACMIA assay format employed, the enzymatic activity observed when testing a sample containing no sirolimus was indicative of the amount of enzymatic activity that was not bound to active antibody (i.e., cannot bind sirolimus on chrome particles). The enzymatic activity observed when no chrome particle is present is indicative of the total amount of enzymatic activity in the conjugate. These values can be used to estimate the percent of enzymatic activity bound to active antibody.
Monoclonal anti-sirolimus antibody (Wyeth Pharmaceuticals, Cambridge Mass.) was conjugated to β-galactosidase using a standard heterobifunctional SMCC (succinimidyl trans-4-(N-maleimidylmethyl)cyclohexane-1-carboxylate) linker according to known techniques. The antibody conjugate solution contained approximately 7.5 μg/mL anti-sirolimus antibody-β-galactosidase conjugate, 30 mg/mL protease free bovine serum albumin, 0.126 mg/mL MgCl2, 0.03 mL/mL of Ethylene glycol, 35.14 mg/mL PIPES 1.5 sodium salt, 50 mg/mL NaCl and beta-gal mutein (inactivated beta-galactosidase), pH 6.5.
Sirolimus chrome particles (immunoassay solid phase) were prepared by conjugating sirolimus-C26- or -C32-CMO conjugate to DA10-Dexal-Chromium Dioxide particles using N-hydroxysuccinimide (NHS) ester and 1-ethyl-3-(3-dimethylaminopropyl)carbodiimide (EDAC) chemistry. See, for example, U.S. Pat. No. 6,231,982, the relevant disclosure of which is incorporated herein by reference. The sirolimus chrome particles are then made into sirolimus chrome particle tablets. Each sirolimus tablet contains approximately 2 mg sirolimus chrome particle slurry, 30.4 mg trehalose dihydrate and 3.6 mg CARBOWAX® 100 μm.
The principle and operation of the ACMIA assay for sirolimus were as follows: pretreatment reagent without FKE or with FKE containing organic solvent as the selective solubility agent was added to a reaction vessel on the DIMENSION® RxL analyzer. Next, 18 μL of whole blood containing sirolimus or its metabolites was added. The whole blood was sampled from a standard cup by first mixing the blood with the ultrasonic sample probe. The mixing of whole blood sample with the pretreatment solution ensured the hemolysis of the whole blood and the displacement of the protein bound sirolimus molecules from their binding sites when the tacrolimus carbamate molecules were present. Anti-sirolimus antibody-β-galactosidase conjugate (50 μL) was added next and was allowed to react with sirolimus in the sample. The chrome particles with immobilized sirolimus-CMO-DA10-Dexal were added (50 μL) and were allowed to bind the un-bound conjugate. […] The sirolimus-bound conjugate was detected by transferring the supernatant from the reaction vessel to a photometric cuvette and measuring the enzymatic rate of the conjugate in the presence of chlorophenol red-β-D-galactopyranoside (CPRG). The rate was measured bichromatically at 577 and 700 nm. […]

[1] = PT with 15 μg/mL FKE & 15% DMSO

Row | Compound | sirolimus metabolite cross-reactivity [1] | sirolimus metabolite cross-reactivity (PT with 15 μg/mL FKE, no DMSO) | sirolimus metabolite cross-reactivity (PT with Neither FKE Nor DMSO) | % Cross-Reactivity (Control: no organic solvent in pretreatment reagent, recovery as percent of parent sirolimus) | % Cross-Reactivity (DMSO 10% in pretreatment reagent, 2.3% in reaction mixture, 15 μg/mL FK506 ester) | % Cross-Reactivity (DMSO 15% in pretreatment reagent, 3.4% in reaction mixture, 15 μg/mL FK506 ester) | % Cross-Reactivity (Methoxypropanol 10% in pretreatment reagent, 2.3% in reaction mixture, 15 μg/mL FK506 ester)
1 | (N-oxide)-hydroxy sirolimus | 13% | 49% | 152% | – | – | – | –
2 | 41-O-demethyl sirolimus | 40% | 39% | 48% | – | – | – | –
3 | 27,39-O-didesmethyl (or 32,41-O-didesmethyl) sirolimus [27,39 Didesmethyl sirolimus] | 88% | 165% | 569% | 180% | 100% | 88% | 92%
4 | CO[C@@H]1C[C@H](C[C@@H](C)[C@@H]2CC(=O)[C@H](C)/C=C(\C)[C@@H](O)[C@@H](OC)C(=O)[C@H](C)C[C@H](C)/C=C/C=C/C=C(\C)[C@@H](O)C[C@@H]3CC[C@@H](C)[C@@](O)(O3)C(=O)C(=O)N3CCCC[C@H]3C(=O)O2)CC[C@H]1O [7-O-demethyl sirolimus] | −3% | 7% | 6% | – | – | – | –
5 | 32-O-desmethyl sirolimus | −3% | 8% | 34% | – | – | – | –
6 | 11-hydroxy sirolimus | 35% | 78% | 315% | – | – | – | –
7 | 11-hydroxy sirolimus [11-hydroxy sirolimus (isomer of the above)] | 9% | 34% | 114% | – | – | – | –
